We go through one compound from article PMC6707612, “Cyclic-di-GMP binds to histidine kinase RavS to control RavS-RavR phosphotransfer and regulates the bacterial lifestyle transition between virulence and swimming” (PLoS Pathogens, 2019).

What is called Kd is a measure of binding affinity in units of concentration.

Common to all, as to experiment: microscale thermophoresis (MST) binding
Assay [1] concerns the target T1, RavS^ΔN (Xanthomonas campestris pv. campestris, UniProt Q8P9A6).
T1 sequence (Q8P9A6 352-697): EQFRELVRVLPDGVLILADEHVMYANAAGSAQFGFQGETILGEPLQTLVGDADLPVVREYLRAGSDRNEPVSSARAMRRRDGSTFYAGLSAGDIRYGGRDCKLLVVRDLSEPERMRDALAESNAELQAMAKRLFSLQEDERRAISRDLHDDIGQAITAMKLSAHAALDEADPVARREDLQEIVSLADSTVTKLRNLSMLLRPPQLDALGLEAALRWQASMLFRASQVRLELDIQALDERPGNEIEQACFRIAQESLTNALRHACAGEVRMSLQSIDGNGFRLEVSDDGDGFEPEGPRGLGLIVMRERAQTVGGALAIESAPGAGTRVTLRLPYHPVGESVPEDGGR
The conditions noted are these: 20 nM fluorescein-labelled nucleotide, read-out: dissociation constant (Kd). As to the method:
(§1) The interaction between c-di-GMP nucleotides and various proteins was measured by using MST with a fluorescein-labelled c-di-GMP (2′-Fluo-AHC-c-di-GMP, abbreviated as fl-c-di-GMP; 2′-Fluo-AHC-c-di-AMP, fl-c-di-AMP; 2′-Fluo-AHC-cGMP, fl-cGMP; Biolog, Germany). These chemicals contain carboxyfluorescein that has excitation and emission wavelengths of 497 nm and 520 nm, respectively, which can be detected directly by a MST instrument. The experiments were performed on a Monolith NT.115 device using standard treated capillaries (NanoTemper Technologies, Germany). The concentration of the particular protein varied from 0.036 to 150 μM with a 2-fold gradient and the concentration of fl-c-di-GMP was constant at 20 nM. Fluorescence intensity due to thermophoresis was recorded using the blue channel optics of the instrument (λex = 470 ± 15 nm, λem = 520 ± 10 nm) during a 30 s period of infrared laser heating at 80% of the maximum laser power, followed by a 5 s cooling period. Measurements were performed in buffer containing 20 mM HEPES, pH 7.5, 150 mM NaCl, 2 mM MgCl2, 2 mM DTT and 0.05% Tween 20. […]
(§2) Supplementary file ppat.1007952.s007.pdf: S7 Fig c-di-GMP specifically binds to RavS to enhance the RavS-RavR phosphotransfer. […] The interactions of RavS^ΔN, RavA, VgrS and RavR^ΔEAL with fl-c-di-GMP were measured by microscale thermophoresis (MST). Twenty nanomolar fluorescein-labelled nucleotides and increasing concentrations of proteins were co-incubated and potential interactions were measured by MST. The dissociation constant (Kd) was determined to estimate the binding affinity. […]
(§3) (b) RavSΔN specifically interacts with fl-c-di-GMP. The interactions of RavSΔN, RavA, VgrS and RavRΔEAL with fl-c-di-GMP were measured by microscale thermophoresis (MST). Twenty nanomolar fluorescein-labelled nucleotide and increasing concentrations of proteins were co-incubated and potential interactions were measured by MST.
(§4) The dissociation constant (Kd) was determined to estimate the binding affinity. […]

Assay [2] deals with RavA (Xanthomonas campestris pv. campestris, UniProt Q8P9A8). The conditions noted are these: 20 nM fluorescein-labelled nucleotide, read-out: dissociation constant (Kd). As to the method:
as §1, §2, §3, §4

The target of assay [3] is VgrS (Xanthomonas campestris pv. campestris, UniProt Q8P666). The following applies: 20 nM fluorescein-labelled nucleotide, read-out: dissociation constant (Kd). As to the method: as §1, §2, §3, §4
In assay [4] the target is DHp domain of RavS. Also noted: species or system Xanthomonas campestris pv. campestris. The following applies: DHp region. As to the method: (§5) Fig 6 Arg^656 in the CA domain of RavS is a key residue for c-di-GMP binding. (a, b) c-di-GMP binds to the DHp-CA domain of RavS. PAS-A, PAS-B and DHp-CA in (a), and DHp and CA domains of RavS in (b), were purified and the interaction with c-di-GMP was measured by MST. Each assay was repeated three times. Standard deviations are shown. (c) Molecular docking model of the interaction between c-di-GMP and DHp-CA of RavS. c-di-GMP is shown as a ball-and-stick model and DHp-CA is shown in ribbon representation. (d) Schematic view of the predicted docking site between c-di-GMP and DHp-CA. Potential hydrogen bonds are indicated as blue dashed lines. Autodock software was used to predict the interaction. (e) Effect of amino acid substitutions on RavS–c-di-GMP binding. Ten recombinant proteins of the DHp-CA region, each containing a substitution of a putative essential residue involved in c-di-GMP binding, were used in the MST assay to quantify the Kd value of RavS–c-di-GMP binding. fl-c-di-GMP was used in the MST assay. Each experiment was repeated three times. […] The reactions were terminated with 5× SDS loading buffer and the products were separated by 12% SDS-PAGE, exposed to a phosphor screen and analysed by Typhoon FLA7000. […]
(§6) The interaction between c-di-GMP nucleotides and various proteins was measured by using MST with a fluorescein-labelled c-di-GMP (2′-Fluo-AHC-c-di-GMP, abbreviated as fl-c-di-GMP; 2′-Fluo-AHC-c-di-AMP, fl-c-di-AMP; 2′-Fluo-AHC-cGMP, fl-cGMP; Biolog, Germany). These chemicals contain carboxyfluorescein that has excitation and emission wavelengths of 497 nm and 520 nm, respectively, which can be detected directly by a MST instrument. […] Fluorescence intensity due to thermophoresis was recorded using the blue channel optics of the instrument (λex = 470 ± 15 nm, λem = 520 ± 10 nm) during a 30 s period of infrared laser heating at 80% of the maximum laser power, followed by a 5 s cooling period. […]

The target in assay [5] is PAS-B of RavS. More on the design: species or system Xanthomonas campestris pv. campestris. The conditions noted are these: PAS-B region. The protocol:
as §5, §6

In assay [6] the target is PAS-A of RavS. Also noted: species or system Xanthomonas campestris pv. campestris. The following applies: PAS-A region. The protocol: as §5, §6

“And” between values parts separate entries of the source, which are not always exact repeats. Equal values may be shown once.

Sequence of RavA (Q8P9A8 entry or part of it): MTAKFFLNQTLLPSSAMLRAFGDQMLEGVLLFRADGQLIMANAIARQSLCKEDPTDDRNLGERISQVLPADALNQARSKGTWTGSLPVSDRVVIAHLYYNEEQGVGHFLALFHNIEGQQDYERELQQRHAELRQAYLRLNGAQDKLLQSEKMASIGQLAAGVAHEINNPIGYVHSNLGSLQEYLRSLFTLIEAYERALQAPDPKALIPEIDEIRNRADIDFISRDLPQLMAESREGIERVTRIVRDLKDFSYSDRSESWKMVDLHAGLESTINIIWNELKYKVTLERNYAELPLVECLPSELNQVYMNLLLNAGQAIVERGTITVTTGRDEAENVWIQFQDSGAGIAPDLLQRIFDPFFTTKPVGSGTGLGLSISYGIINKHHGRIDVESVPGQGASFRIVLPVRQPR
Sequence of VgrS (Q8P666 entry or part of it): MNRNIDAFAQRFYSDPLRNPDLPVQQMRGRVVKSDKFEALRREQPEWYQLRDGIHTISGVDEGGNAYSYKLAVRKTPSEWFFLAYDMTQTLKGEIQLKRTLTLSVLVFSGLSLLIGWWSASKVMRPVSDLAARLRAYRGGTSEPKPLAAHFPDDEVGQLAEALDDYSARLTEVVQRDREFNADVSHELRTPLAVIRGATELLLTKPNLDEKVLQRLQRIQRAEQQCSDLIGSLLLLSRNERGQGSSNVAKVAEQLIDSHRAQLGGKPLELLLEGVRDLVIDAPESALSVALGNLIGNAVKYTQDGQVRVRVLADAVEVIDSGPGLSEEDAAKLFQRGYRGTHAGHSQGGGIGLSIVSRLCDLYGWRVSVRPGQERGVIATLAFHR

In the case of `Nc1nc2c(ncn2[C@@H]2O[C@@H]3COP(=O)(O)O[C@H]4[C@@H](OC(=O)NCCCCCCNC(=O)c5ccc6c(c5)C(=O)OC65c6ccc(O)cc6Oc6cc(O)ccc65)[C@H](n5cnc6c(=O)[nH]c(N)nc65)O[C@@H]4COP(=O)(O)O[C@H]3[C@H]2O)c(=O)[nH]1` [fl-c-di-GMP, 2′-Fluo-AHC-c-di-GMP], the dissociation constant (Kd) in assay [1] was 5.62 ± 0.74 µM; in assay [2], 116 µM and > 80 µM; in assay [3], 88.1 µM and > 80 µM. Moreover, the “binding (MST)” value in assay [4], in assay [5] and in assay [6] was “no binding” in each case.
